28 compounds from patent US20130116241A1, “NOVEL INHIBITOR COMPOUNDS OF PHOSPHODIESTERASE TYPE 10A” (AbbVie Inc., priority 2011, published 2013) can be followed below.

Sequence of human PDE10A (Q9Y233 290-1055 limits assumed): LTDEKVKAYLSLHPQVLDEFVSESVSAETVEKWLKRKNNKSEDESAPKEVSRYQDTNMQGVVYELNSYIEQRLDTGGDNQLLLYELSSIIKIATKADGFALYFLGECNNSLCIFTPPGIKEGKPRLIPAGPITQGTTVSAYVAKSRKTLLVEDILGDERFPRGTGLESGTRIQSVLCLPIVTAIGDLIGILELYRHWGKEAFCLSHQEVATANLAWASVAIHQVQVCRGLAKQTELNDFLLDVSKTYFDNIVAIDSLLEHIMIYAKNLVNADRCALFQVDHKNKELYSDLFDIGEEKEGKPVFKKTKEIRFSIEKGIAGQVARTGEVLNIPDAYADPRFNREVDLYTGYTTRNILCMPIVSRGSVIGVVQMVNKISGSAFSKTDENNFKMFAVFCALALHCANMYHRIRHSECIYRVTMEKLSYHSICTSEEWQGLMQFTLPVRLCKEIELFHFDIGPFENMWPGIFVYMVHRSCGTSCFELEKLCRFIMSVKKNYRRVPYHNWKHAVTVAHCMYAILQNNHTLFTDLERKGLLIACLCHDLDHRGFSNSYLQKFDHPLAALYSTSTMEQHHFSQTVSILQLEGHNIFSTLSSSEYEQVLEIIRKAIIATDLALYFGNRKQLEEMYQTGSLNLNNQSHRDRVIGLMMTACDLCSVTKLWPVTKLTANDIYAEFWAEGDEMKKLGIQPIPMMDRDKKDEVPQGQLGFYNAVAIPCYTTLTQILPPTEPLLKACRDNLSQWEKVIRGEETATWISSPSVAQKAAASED

The experiment addresses human PDE10A (UniProt Q9Y233). Put plainly: Measurement of PDE activity (recombinant enzyme, HTRF cAMP kit). Format: biochemical. As to conditions: Table 1, substrate 20 nM for PDE10, 60 minutes at 29 C, read-out: IC50. The procedure: The recombinant PDE proteins are used in in vitro enzymatic reaction for measurement of PDE activity. These recombinant proteins, including PDE10A (human, rat and mouse PDE10) and isoforms of PDEs 1, 3, 4, and 5, were purchased from commercial vendor BPS Bioscience. The enzymatic activity of PDEs was determined by cAMP measurement kit from CisBio (IBA) using HTRF technology.
The PDE enzymatic reaction was carried out in assay buffer (20 mM Tris-HCl pH7.5, 10 mM MgCl2, 0.1% bovine serum albumin) containing enzyme and substrate. The PDE enzymes concentration ranged from 10 pM-250 pM, depending on each enzyme's specific activity. The substrate cyclic nucleotide (cAMP or cGMP) concentration used in the assay was 20 nM for PDE10, and 100 nM for other PDEs. The inhibitory effect of compound was determined by incubating various concentration of inhibitor in the enzymatic assay. Typically, compound was serial diluted in DMSO then further diluted in assay buffer. Next, the compound at varying concentration was mixed with PDE enzyme. The reaction was initiated by addition of cyclic nucleotide substrate, and incubated for 60 minutes at 29 C. The reaction was stopped by addition of lysis buffer from assay kit. The cAMP-d2 and anti-cAMP cryptate in the lysis buffer detected the level of cAMP left from the PDE hydrolysis reaction. The PDE activity is reversely correlated with the amount of cAMP left in the reaction and can be converted to the percent activity of an uninhibited control (100%). Thus, IC50 value of inhibitor can be obtained by plotting inhibitor concentration against PDE activity at that concentration.
With `O=c1c2c(-c3cccc4ncccc34)csc2cnn1CCc1ccc2ccccc2n1` [Example 47, 3-(quinolin-5-yl)-5-[2-(quinolin-2-yl)ethyl]thieno[2,3-d]pyridazin-4(5H)-one], the IC50 (usually the concentration that gives 50% inhibition) fell in the range of 100 to 200 nM.
Take `Cc1noc(C)c1-c1csc2cnn(CCc3ccc4ccccc4n3)c(=O)c12` [Example 48, 3-(3,5-dimethyl-1,2-oxazol-4-yl)-5-[2-(quinolin-2-yl)ethyl]thieno[2,3-d]pyridazin-4(5H)-one]: the IC50 was under 100 nM.
For `COc1ccc(-c2csc3cnn(CCc4ccc5ccccc5n4)c(=O)c23)cn1` [Example 49, 3-(6-methoxypyridin-3-yl)-5-[2-(quinolin-2-yl)ethyl]thieno[2,3-d]pyridazin-4(5H)-one], the IC50 fell in the range of 100 to 200 nM.
The result for `O=c1c2c(-c3ccc4c(c3)OCCO4)csc2cnn1CCc1ccc2ccccc2n1` [Example 50, 3-(2,3-dihydro-1,4-benzodioxin-6-yl)-5-[2-(quinolin-2-yl)ethyl]thieno[2,3-d]pyridazin-4(5H)-one] reads 200 to 500 nM.
As for `Cc1cc(-c2csc3cnn(CCc4ccc5ccccc5n4)c(=O)c23)ccn1` [Example 51, 3-(2-methylpyridin-4-yl)-5-[2-(quinolin-2-yl)ethyl]thieno[2,3-d]pyridazin-4(5H)-one], the figure is under 100 nM; as for `COc1cncc(-c2csc3cnn(CCc4ccc5ccccc5n4)c(=O)c23)c1` [Example 52, 3-(5-methoxypyridin-3-yl)-5-[2-(quinolin-2-yl)ethyl]thieno[2,3-d]pyridazin-4(5H)-one], 100 to 200 nM.
As for `O=c1c2c(-c3ccc4c(c3)OCO4)csc2cnn1CCc1ccc2ccccc2n1` [Example 54, 3-(1,3-benzodioxol-5-yl)-5-[2-(quinolin-2-yl)ethyl]thieno[2,3-d]pyridazin-4(5H)-one], the figure is 100 to 200 nM.
For the compound `O=c1c2c(-c3ccc4ncccc4c3)csc2cnn1CCc1ccc2ccccc2n1` [Example 55, 3-(quinolin-6-yl)-5-[2-(quinolin-2-yl)ethyl]thieno[2,3-d]pyridazin-4(5H)-one], the IC50 is under 100 nM.
As for `Cn1cc(-c2csc3cnn(CCc4ccc5ccccc5n4)c(=O)c23)cn1` [Example 56, 3-(1-methyl-1H-pyrazol-4-yl)-5-[2-(quinolin-2-yl)ethyl]thieno[2,3-d]pyridazin-4(5H)-one], the figure is under 100 nM.
On to `CC(C)Cn1cc(-c2csc3cnn(CCc4ccc5ccccc5n4)c(=O)c23)cn1` [Example 57, 3-[1-(2-methylpropyl)-1H-pyrazol-4-yl]-5-[2-(quinolin-2-yl)ethyl]thieno[2,3-d]pyridazin-4(5H)-one], for which the IC50 is 200 to 500 nM.
Turning to `COc1ncc(-c2csc3cnn(CCc4ccc5ccccc5n4)c(=O)c23)cn1` [Example 59, 3-(2-methoxypyrimidin-5-yl)-5-[2-(quinolin-2-yl)ethyl]thieno[2,3-d]pyridazin-4(5H)-one], the IC50 was under 100 nM.
The result for `O=c1c2c(-c3ccc(F)c(F)c3F)csc2cnn1CCc1ccc2ccccc2n1` [Example 60, 5-[2-(quinolin-2-yl)ethyl]-3-(2,3,4-trifluorophenyl)thieno[2,3-d]pyridazin-4(5H)-one] reads 200 to 500 nM; that for `Cc1cc(F)ccc1-c1csc2cnn(CCc3ccc4ccccc4n3)c(=O)c12` [Example 62, 3-(4-fluoro-2-methylphenyl)-5-[2-(quinolin-2-yl)ethyl]thieno[2,3-d]pyridazin-4(5H)-one], 200 to 500 nM.
As for `O=c1c2c(-c3ccc(F)cc3Cl)csc2cnn1CCc1ccc2ccccc2n1` [Example 64, 3-(2-chloro-4-fluorophenyl)-5-[2-(quinolin-2-yl)ethyl]thieno[2,3-d]pyridazin-4(5H)-one], the figure is 200 to 500 nM.
Regarding `O=c1c2c(-c3ccc(F)cc3F)csc2cnn1CCc1ccc2ccccc2n1` [Example 67, 3-(2,4-difluorophenyl)-5-[2-(quinolin-2-yl)ethyl]thieno[2,3-d]pyridazin-4(5H)-one], the IC50 lay in the range of 100 to 200 nM.
For `O=c1c2c(-c3cccc(F)c3F)csc2cnn1CCc1ccc2ccccc2n1` [Example 70, 3-(2,3-difluorophenyl)-5-[2-(quinolin-2-yl)ethyl]thieno[2,3-d]pyridazin-4(5H)-one], the IC50 lay within 100 to 200 nM.
For the compound `COc1ccc(-c2csc3cnn(CCc4ccc5ccccc5n4)c(=O)c23)cc1OC` [Example 71, 3-(3,4-dimethoxyphenyl)-5-[2-(quinolin-2-yl)ethyl]thieno[2,3-d]pyridazin-4(5H)-one], the IC50 is 200 to 500 nM.
With `O=c1c2c(-c3ccc(F)c(F)c3)csc2cnn1CCc1ccc2ccccc2n1` [Example 72, 3-(3,4-difluorophenyl)-5-[2-(quinolin-2-yl)ethyl]thieno[2,3-d]pyridazin-4(5H)-one], the IC50 was 100 to 200 nM.
The result for `O=c1c2c(-c3cc(F)ccc3F)csc2cnn1CCc1ccc2ccccc2n1` [Example 76, 3-(2,5-difluorophenyl)-5-[2-(quinolin-2-yl)ethyl]thieno[2,3-d]pyridazin-4(5H)-one] reads 100 to 200 nM; that for `COc1ccc(-c2csc3cnn(CCc4ccc5ccccc5n4)c(=O)c23)cc1F` [Example 78, 3-(3-fluoro-4-methoxyphenyl)-5-[2-(quinolin-2-yl)ethyl]thieno[2,3-d]pyridazin-4(5H)-one], 200 to 500 nM.
As for `COc1cccc(-c2csc3cnn(CCc4ccc5ccccc5n4)c(=O)c23)c1F` [Example 79, 3-(2-fluoro-3-methoxyphenyl)-5-[2-(quinolin-2-yl)ethyl]thieno[2,3-d]pyridazin-4(5H)-one], the figure is 200 to 500 nM; as for `O=c1c2c(-c3cc(F)cc(F)c3)csc2cnn1CCc1ccc2ccccc2n1` [Example 80, 3-(3,5-difluorophenyl)-5-[2-(quinolin-2-yl)ethyl]thieno[2,3-d]pyridazin-4(5H)-one], 100 to 200 nM.
The result for `O=c1c2c(-c3ccccc3)csc2cnn1CCc1ccc2ccccc2n1` [Example 85, 3-phenyl-5-[2-(quinolin-2-yl)ethyl]thieno[2,3-d]pyridazin-4(5H)-one] reads 100 to 200 nM; that for `O=c1c2c(-c3ccc4[nH]ncc4c3)csc2cnn1CCc1ccc2ccccc2n1` [Example 87, 3-(1H-indazol-5-yl)-5-[2-(quinolin-2-yl)ethyl]thieno[2,3-d]pyridazin-4(5H)-one], under 100 nM; that for `Cn1nccc1-c1csc2cnn(CCc3ccc4ccccc4n3)c(=O)c12` [Example 88, 3-(1-methyl-1H-pyrazol-5-yl)-5-[2-(quinolin-2-yl)ethyl]thieno[2,3-d]pyridazin-4(5H)-one], under 100 nM.
Take `Cc1ccc(-c2csc3cnn(CCc4ccc5ccccc5n4)c(=O)c23)c(F)c1` [Example 90, 3-(2-fluoro-4-methylphenyl)-5-[2-(quinolin-2-yl)ethyl]thieno[2,3-d]pyridazin-4(5H)-one]: the IC50 was 200 to 500 nM.
The result for `COc1ccc(F)c(-c2csc3cnn(CCc4ccc5ccccc5n4)c(=O)c23)c1` [Example 91, 3-(2-fluoro-5-methoxyphenyl)-5-[2-(quinolin-2-yl)ethyl]thieno[2,3-d]pyridazin-4(5H)-one] reads 100 to 200 nM; that for `O=c1c2c(-c3ccncc3)csc2cnn1CCc1ccc2cc(F)ccc2n1` [Example 93, 5-[2-(6-Fluoroquinolin-2-yl)ethyl]-3-(pyridin-4-yl)thieno[2,3-d]pyridazin-4(5H)-one], under 100 nM.
